Assay results reported in US4978744A, “Synthesis of dolastatin 10” (Arizona Board of Regents, priority 1989, dated 1990).

System: P388 lymphocytic leukemia
Assay: Activity against the P388 lymphocytic leukemia
Assay type: cell-based
Details: same level as routinely obtained with the natural product

dolastatin 10 [Synthetic dolastatin 10]
ED50, activity against the P388 lymphocytic leukemia: 10^-4 μg/mL
